Laboratory results published in patent US10633407B2, “14-membered ketolides and methods of their preparation and use” (President and Fellows of Harvard College, priority 2014, dated 2020).
In brackets after ≈: the same amount, converted by molar mass.

Legend:
Assay in all cases: CLSI broth dilution MIC determination
Type in all cases: cell-based
[1] = test system: K. pneumoniae KPC-2; conditions: Klebsiella pneumoniae, KPC2, read-out: MIC
[2] = test system: A. baumannii imipenem-resistant; conditions: Acinetobacter baumannii, read-out: MIC
[3] = test system: H. influenzae Erythro >4, Azithro 1; conditions: Haemophilus influenzae; read-out: MIC
From the text: MIC data was collected for the novel macrolides that this platform has produced against over 21 unique strains of B. subtilis, E. coli, S. aureus, S. pneumoniae, and H. influenzae, including several multidrug-resistant strains, with a special focus on macrolide resistant mechanisms (vide supra). […] CLSI standard procedures for broth dilution MIC determination were used. […] These genotypes can be constitutive or inducible.

[4] = test system: E. faecalis Vancomycin-resistant; conditions: Enterococcus faecalis, E. faecalis Vancomycin-resistant (UNT-039); read-out: MIC
[5] = test system: A. baumannii IMP-4; conditions: Acinetobacter baumannii, IMP4, read-out: MIC
[6] = test system: S. pyogenes Macrolide-resistant; conditions: Streptococcus pyogenes, S. pyogenes Macrolide-resistant (MP-625 UNT-014); read-out: MIC
[7] = test system: A. baumannii chromosomal class C; conditions: Acinetobacter baumannii, read-out: MIC
[8] = test system: K. pneumoniae TEM-10; conditions: Klebsiella pneumoniae, TEM10, read-out: MIC
[9] = test system: E. coli CTX-M-14; conditions: Escherichia coli, CTXM14, read-out: MIC
Method in brief: (§1)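 Compounds are serially diluted in broth per CLSI standard methods to give the MIC; azithromycin and solithromycin act as comparator macrolides in many cases, and resistance genotypes may be inducible or constitutive.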

[10] = test system: E. coli NDM-1; conditions: Escherichia coli, NDM1, read-out: MIC
Method in brief: as §1

[11] = test system: S. aureus MRSA: USA300; conditions: Staphylococcus aureus; S. aureus MRSA: USA300 (MP-549, msr(a)); read-out: MIC
Method in brief: as §1

[12] = test system: E. coli ATCC 25922; conditions: Escherichia coli, ATCC25922, E. coli ATCC 25922 (MP-4); read-out: MIC
Method in brief: as §1

[13] = test system: S. aureus USA600, GISA; conditions: Staphylococcus aureus; S. aureus USA600, GISA (MP-619 UNT-120); read-out: MIC
Method in brief: as §1

[14] = test system: S. pneumoniae erm B + mef A genotype; conditions: Streptococcus pneumoniae
Method in brief: as §1

[15] = test system: S. pneumoniae mef A genotype (first strain so labelled); conditions: Streptococcus pneumoniae, first strain (MP-626 UNT-038)
Method in brief: as §1

[16] = test system: S. pneumoniae mef A genotype (second strain so labelled); conditions: Streptococcus pneumoniae, second strain (MP-627 UNT-039), read-out: MIC
Method in brief: as §1

[17] = test system: S. pneumoniae erm B + tet(M,O) genotype; conditions: Streptococcus pneumoniae
Method in brief: as §1

[18] = test system: S. aureus ATCC 29213; conditions: Staphylococcus aureus, ATCC29213; S. aureus ATCC 29213 (MP-12); read-out: MIC
Method in brief: as §1

[19] = test system: S. aureus MRSA: USA100; conditions: Staphylococcus aureus; S. aureus MRSA: USA100 (MP-618 UNT-096); read-out: MIC
Method in brief: as §1

[20] = test system: H. influenzae ATCC49247; conditions: Haemophilus influenzae, read-out: MIC
Method in brief: as §1

[21] = test system: S. pneumoniae ATCC 49619; conditions: Streptococcus pneumoniae, ATCC49619, S. pneumoniae ATCC 49619 (MP-21); read-out: MIC
Method in brief: as §1

[22] = test system: E. coli TEM-1; conditions: Escherichia coli, TEM1
Method in brief: as §1

[23] = test system: S. aureus erm A genotype; conditions: Staphylococcus aureus; S. aureus erm A genotype (MP-620 UNT-146); read-out: MIC
Method in brief: as §1

[24] = test system: K. pneumoniae SHV-12; conditions: Klebsiella pneumoniae, SHV12, read-out: MIC
[25] = test system: A. baumannii ATCC 19606; conditions: Acinetobacter baumannii, ATCC19606; A. baumannii ATCC 19606 (MP-15); read-out: MIC
[26] = test system: E. faecalis ATCC 29212; conditions: Enterococcus faecalis, ATCC29212, E. faecalis ATCC 29212 (MP-24); read-out: MIC
[27] = test system: P. aeruginosa ATCC 27853; conditions: Pseudomonas aeruginosa, ATCC27853; P. aeruginosa ATCC 27853 (MP-3); read-out: MIC
[28] = test system: S. pyogenes ATCC 19615; conditions: Streptococcus pyogenes, ATCC19615, S. pyogenes ATCC 19615 (MP-19); read-out: MIC
[29] = test system: K. pneumoniae ATCC 10031; conditions: Klebsiella pneumoniae, ATCC10031, K. pneumoniae ATCC 10031 (MP-14); read-out: MIC
[30] = test system: P. aeruginosa HPA101-1477; conditions: Pseudomonas aeruginosa, HPA1011477, read-out: MIC

Structure (SMILES) | MIC [1] [µg/mL] | MIC [2] [µg/mL] | MIC [3] [µg/mL] | MIC [4] [µg/mL] | MIC [5] [µg/mL] | MIC [6] [µg/mL] | MIC [7] [µg/mL] | MIC [8] [µg/mL] | MIC [9] [µg/mL] | MIC [10] [µg/mL] | MIC [11] [µg/mL] | MIC [12] [µg/mL] | MIC [13] [µg/mL] | MIC [14] [µg/mL] | MIC [15] [µg/mL] | MIC [16] [µg/mL] | MIC [17] [µg/mL] | MIC [18] [µg/mL] | MIC [19] [µg/mL] | MIC [20] [µg/mL] | further results
CC[C@H]1OC(=O)[C@H](C)C(=O)[C@H](C)[C@@H](O[C@@H]2OC(C)CC(N(C)C)C2O)[C@](C)(OC)C[C@@H](C)C(=O)C[C@H]2N(CCCCn3cc(-c4cccc(N)c4)nn3)C(=O)O[C@]12C (stereo partly drawn) [FSM-21535] | > 32 | > 32 | 8 (≈ 9.84 µM) | > 32 | > 32 | 0.5 (≈ 0.615 µM) | > 32 | > 32 | > 32 | > 32 | 32 (≈ 39.4 µM) | > 32 | > 32 | 8 (≈ 9.84 µM) | 0.0625 (≈ 0.0769 µM) | 0.5 (≈ 0.615 µM) | ≤ 0.0312 | 16 (≈ 19.7 µM) | > 32 | 4 (≈ 4.92 µM) | MIC [21]: ≤ 0.0312 µg/mL; MIC [22]: > 32 µg/mL; MIC [23]: > 32 µg/mL; MIC [24]: > 32 µg/mL; MIC [25]: > 32 µg/mL; MIC [26]: ≤ 0.0312 µg/mL; MIC [27]: > 32 µg/mL; MIC [28]: ≤ 0.0312 µg/mL; MIC [29]: 4 µg/mL (≈ 4.92 µM); MIC [30]: > 32 µg/mL
CC[C@H]1OC(=O)[C@@](C)(F)C(=O)[C@H](C)[C@@H](O[C@@H]2OC(C)CC(N(C)C)C2O)[C@](C)(OC)C[C@@H](C)C(=O)C[C@H]2N(CCCCn3cc(-c4cccc(N)c4)nn3)C(=O)O[C@]12C (stereo partly drawn) [FSM-21598] | > 32 | > 32 | 8 (≈ 9.63 µM) | > 32 | > 32 | 0.25 (≈ 0.301 µM) | 32 (≈ 38.5 µM) | > 32 | > 32 | > 32 | 32 (≈ 38.5 µM) | > 32 | > 32 | 8 (≈ 9.63 µM) | ≤ 0.0312 | 0.25 (≈ 0.301 µM) | ≤ 0.0312 | 32 (≈ 38.5 µM) | > 32 | 4 (≈ 4.81 µM) | MIC [21]: ≤ 0.0312 µg/mL; MIC [22]: > 32 µg/mL; MIC [23]: > 32 µg/mL; MIC [24]: > 32 µg/mL; MIC [25]: > 32 µg/mL; MIC [26]: ≤ 0.0312 µg/mL; MIC [27]: > 32 µg/mL; MIC [28]: ≤ 0.0312 µg/mL; MIC [29]: 8 µg/mL (≈ 9.63 µM); MIC [30]: > 32 µg/mL
C=C1C(=O)[C@H](C)C[C@@](C)(OC)[C@H](O[C@@H]2OC(C)CC(N(C)C)C2O)[C@@H](C)C(=O)[C@@H](C)C(=O)O[C@H](CC)[C@@]2(C)OC(=O)N(CCCCn3cc(-c4cccc(N)c4)nn3)[C@H]12 (stereo partly drawn) [FSM-21828] | > 32 | > 32 | 16 (≈ 19.4 µM) | > 32 | > 32 | 0.5 (≈ 0.606 µM) | > 32 | > 32 | > 32 | > 32 | > 32 | > 32 | > 32 | 32 (≈ 38.8 µM) | 0.0625 (≈ 0.0758 µM) | 0.5 (≈ 0.606 µM) | ≤ 0.0312 | 4 (≈ 4.85 µM) | > 32 | 16 (≈ 19.4 µM) | MIC [21]: ≤ 0.0312 µg/mL; MIC [22]: > 32 µg/mL; MIC [23]: > 32 µg/mL; MIC [24]: > 32 µg/mL; MIC [25]: > 32 µg/mL; MIC [26]: 1 µg/mL (≈ 1.21 µM); MIC [27]: > 32 µg/mL; MIC [28]: ≤ 0.0312 µg/mL; MIC [29]: 16 µg/mL (≈ 19.4 µM); MIC [30]: > 32 µg/mL
CC[C@H]1OC(=O)[C@@H](C)C(=O)[C@H](C)[C@@H](O[C@@H]2OC(C)CC(N(C)C)C2O)[C@](C)(OC)C[C@@H](C)C(=O)[C@H](C)[C@H]2N(C/C=C/Cn3cc(-c4cccc(N)c4)nn3)C(=O)O[C@]12C (stereo partly drawn) [FSM-100432] | > 32 | > 32 | 8 (≈ 9.7 µM) | > 32 | > 32 | 0.0625 (≈ 0.0758 µM) | > 32 | > 32 | > 32 | > 32 | > 32 | > 32 | > 32 | 2 (≈ 2.42 µM) | 0.125 (≈ 0.152 µM) | 0.5 (≈ 0.606 µM) | < 0.0312 | 1 (≈ 1.21 µM) | > 32 | 8 (≈ 9.7 µM) | MIC [21]: < 0.0312 µg/mL; MIC [22]: > 32 µg/mL; MIC [23]: > 32 µg/mL; MIC [24]: > 32 µg/mL; MIC [25]: > 32 µg/mL; MIC [26]: 0.125 µg/mL (≈ 0.152 µM); MIC [27]: > 32 µg/mL; MIC [28]: < 0.0312 µg/mL; MIC [29]: 32 µg/mL (≈ 38.8 µM); MIC [30]: > 32 µg/mL
